According to patent US20220265685A1, “METHODS AND COMPOSITIONS FOR IMPROVING COGNITIVE FUNCTION” (priority 2010, published 2022):
Like-named read-outs stand apart in the source and are kept apart here.

How the values were obtained:
[1] = tested on: aged-impaired (AI) rats; experiment: Radial Arm Maze (RAM) task, spatial memory retention of aged-impaired rats; type: in vivo, Long-Evans rats
Protocol: FIG. 1 depicts the effects of administering levetiracetam on the spatial memory retention of ten aged-impaired rats (AI) in an eight-arm Radial Arm Maze (RAM) test. Six treatment conditions are employed: vehicle control, levetiracetam (1.25 mg/kg/day), levetiracetam (2.5 mg/kg/day), levetiracetam (5 mg/kg/day), levetiracetam (10 mg/kg/day) and levetiracetam (20 mg/kg/day). In the RAM task used, there is a one-hour delay between presentation of a subset of arms (5 arms available and 3 arms blocked) and completion of the eight-arm win-shift task (eight arms available). Rats are pre-treated 30-40 minutes before daily trials with a one-time drug/control treatment. The number of errors made by the rats during the retention phase is used as a measure of spatial memory retention. Errors are defined as instances when rats enter an arm from which food has already been retrieved in the pre-delay component of the trial or when rats re-visit an arm in the post-delay session that had already been visited. Paired t-tests are used to compare the number of errors between different doses of levetiracetam and vehicle control.
FIG. 2 depicts the effects of administering donepezil only and administering a combination of donepezil and levetiracetam on the spatial memory retention of eight aged-impaired rats (AI) in an eight-arm Radial Arm Maze (RAM) test. Four treatment conditions are employed: vehicle control, donepezil only (1 mg/kg/day), donepezil (2 mg/kg/day), and a combination of donepezil (1 mg/kg/day) and levetiracetam (2.5 mg/kg/day). In the RAM task used, there is a two-hour delay between presentation of a subset of arms (5 arms available and 3 arms blocked) and completion of the eight-arm win-shift task (eight arms available). Rats are pre-treated 30-40 minutes before daily trials with a one-time drug/control treatment. The number of errors made by the rats during the retention phase is used as a measure of spatial memory retention. Errors are defined as instances when rats enter an arm from which food has already been retrieved in the pre-delay component of the trial or when rats re-visit an arm in the post-delay session that have already been visited. Paired t-tests are used to compare the number of errors between different doses of drug treatment and vehicle control.
Aged, male Long-Evans rats were obtained at 8 to 9 months of age from Charles River Laboratories (Raleigh, N.C.) and housed in a vivarium until 24 to 26 months of age. All rats were individually housed at 25° C. and maintained on a 12 h light/dark cycle. Food and water were provided ad libitum unless noted otherwise. The rats were examined for health and pathogen-free status throughout the experiments, as well as necropsies at the time of killing.
All rats were screened in a standardized assessment of spatial cognition. This background assessment used the above-described well-established MWM protocol. […] The selected AI rats were tested for their memory of new spatial information in a Radial Arm Maze (RAM) task, under different drug/control treatment conditions: vehicle control, donepezil only, levetiracetam only, and a combination of donepezil and levetiracetam. The RAM task also extended the behavioral assessment to spatial memory using appetitive motivation. We used a protocol that allowed within-subject assessment across drugs at different doses and in combinations (Koh et al., Neuropsychopharmacology, epub. 1-10, (2009)).
The radial maze consisted of eight arms projecting from each side of an octagonal center platform, with food well located at the distal end of each arm. Plexiglasm blocks could be positioned to prevent entry into any arm. Extra-maze cues were provided in the room surrounding the maze and illumination was provided by an overhead light.

[2] = target: synaptic vesicle protein 2A (SV2A) (Homo sapiens, UniProt Q7L0J3); conditions: Noyer et al. 1995; Fuks et al. 2003; Lynch et al. 2004; Gillard et al. 2006; cited from earlier work
synaptic vesicle protein 2A (SV2A), sequence (Q7L0J3 whole entry, species assumed): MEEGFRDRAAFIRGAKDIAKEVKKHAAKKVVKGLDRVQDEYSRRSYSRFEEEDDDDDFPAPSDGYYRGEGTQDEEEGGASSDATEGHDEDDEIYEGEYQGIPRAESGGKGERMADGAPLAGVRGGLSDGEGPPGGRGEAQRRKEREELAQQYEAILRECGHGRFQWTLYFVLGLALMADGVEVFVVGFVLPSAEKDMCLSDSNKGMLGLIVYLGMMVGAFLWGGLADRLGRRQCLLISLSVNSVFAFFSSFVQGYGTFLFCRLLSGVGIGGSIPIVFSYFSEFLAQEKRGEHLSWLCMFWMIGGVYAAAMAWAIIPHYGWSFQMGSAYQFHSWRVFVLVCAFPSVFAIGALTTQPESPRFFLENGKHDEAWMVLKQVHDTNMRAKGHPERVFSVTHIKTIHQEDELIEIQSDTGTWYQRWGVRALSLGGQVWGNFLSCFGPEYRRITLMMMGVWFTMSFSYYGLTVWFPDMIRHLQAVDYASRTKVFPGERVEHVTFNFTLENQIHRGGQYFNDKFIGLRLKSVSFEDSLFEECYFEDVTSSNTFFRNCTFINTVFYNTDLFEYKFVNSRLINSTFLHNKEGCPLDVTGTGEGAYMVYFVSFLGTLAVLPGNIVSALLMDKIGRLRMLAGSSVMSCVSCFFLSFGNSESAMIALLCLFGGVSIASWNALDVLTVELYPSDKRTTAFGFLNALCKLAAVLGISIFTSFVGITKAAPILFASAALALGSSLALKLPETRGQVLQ

[3] = tested on: aMCI subjects; experiment: neuropsychological assessment (common cognitive tests); type: in vivo, human; conditions: levetiracetam 125 mg twice a day for two weeks
Protocol: (§1) A within-subjects trial of 8 weeks duration, involving 17 amnestic MCI (aMCI) subjects and 17 age-matched controls with a low dose treatment of levetiracetam is conducted. During the course of the study, each aMCI subject receives both drug and placebo treatments separately in two periods of two weeks each, with the order of treatments among different aMCI subjects counterbalanced (see FIG. 3). Age-matched control subjects treated with placebo serve as a further control. Cognitive testing and fMRI imaging data are obtained from the subjects after each two week period of drug/placebo treatment.
All participants undergo neuropsychological evaluation at the time of assessment for treatment efficacy (Visits 1 and 2), as well as at the Baseline Visit.
The evaluation occurs outside of the scanner and includes the Buschke Selective Reminding Test (Buschke and Fuld, 1974) and the Verbal Paired Associates subtest, the Logical Memory subtest, the Visual Reproduction subtest of the Wechsler Memory Scale-Revised (WMS-R) (Wechsler, 1997), and the Benton Visual Retention Test, as these tasks are particularly sensitive to medial temporal lobe function and early memory problems (Marquis et al., 2002 and Masur et al., 1994). Additionally, subjects are asked to complete tests of more general cognitive function such as tests to assess general mental status, executive function, attention and general naming ability. All neuropsychological tests are administered by a trained research assistant during a 60-minute session. As the three neuropsychological assessments in this study occur within a time period of 8 weeks, different versions of the neuropsychological tests are used to minimize test specific practice effects. Breaks are provided to the subject as needed.
(§2) As described above, the drug treatment period is the two weeks preceding Visit 1 or 2 (with the two week period preceding the other Visit being the placebo phase). For the subjects receiving the drug treatment, half a scored 250 mg tablet of levetiracetam is used to achieve a dose of […], which is approximately 3.6 mg/kg/day (assuming an average adult human weight of 70 kg).

[4] = tested on: aMCI subjects; experiment: fMRI activity of medial temporal lobe subregions during the explicit 3-alternative forced choice task; type: in vivo, human; conditions: levetiracetam 125 mg twice a day for two weeks vs placebo
Protocol: as §1, §2
Imaging data are obtained through high-resolution methods developed in the Stark laboratory. […]
Group data are analyzed using a two-way Analysis of Variance (ANOVA) with trial types and group as fixed factors, and subject as a random factor nested within group. […]

[5] = tested on: aMCI subjects; experiment: explicit 3-alternative forced choice task (lure stimuli), performance; type: in vivo, human; conditions: levetiracetam 125 mg twice a day for two weeks vs placebo, p=0.039
From the text: There are various tests known in the art for assessing cognitive function in humans, for example and without limitation, the clinical global impression of change scale (CIBIC-plus scale); the Mini Mental State Exam (MMSE); the Neuropsychiatric Inventory (NPI); the Clinical Dementia Rating Scale (CDR); the Cambridge Neuropsychological Test Automated Battery (CANTAB); the Sandoz Clinical Assessment-Geriatric (SCAG), the Buschke Selective Reminding Test (Buschke and Fuld, 1974); the Verbal Paired Associates subtest; the Logical Memory subtest; the Visual Reproduction subtest of the Wechsler Memory Scale-Revised (WMS-R) (Wechsler, 1997); or the Benton Visual Retention Test. […]
as §2
The activity of the subject's medial temporal lobe is measured by functional MRI during the subject's participation in an explicit 3-alternative forced choice task, where participants view novel, repeated and similar (“lure”) stimuli. […]

[6] = cited from earlier work

Which “effective doses of levetiracetam used in the animal model” value ([1]; AI rats, given acutely) does the source give for `CC[C@@H](C(N)=O)N1CCCC1=O` [levetiracetam, (2S)-2-(2-oxopyrrolidin-1-yl) butanamide] here?
The value was 5 to 10 mg/kg.

What about the “memory performance in AI rats” value ([1]; levetiracetam 2.5 mg/kg/day individually, in the absence of donepezil) of the same compound?
Its value is “does not significantly improve memory performance”.

And the “average no. of errors ± standard error of the mean (SEM), retention test” value ([1]; levetiracetam 5 mg/kg/day i.p., one-hour delay RAM, AI rats n=10, vehicle control 2.00±0.42)?
The value was 0.75±0.32.

And the “memory performance relative to vehicle control treatment” value ([1]; levetiracetam 5 mg/kg/day, one-hour delay RAM, t(9)=2.18, p=0.057)?
The value was “significantly improves memory performance”.

And the “average no. of errors ± SEM, retention test” value ([1]; levetiracetam 10 mg/kg/day i.p., one-hour delay RAM, AI rats n=10, vehicle control 2.00±0.42)?
Its value is 0.80±0.27.

And the “memory performance relative to vehicle control treatment” value ([1]; levetiracetam 10 mg/kg/day, one-hour delay RAM, t(9)=2.37, p=0.042)?
The value was “significantly improves memory performance”.

What about the “performance of AI rats in the radial maze task” value ([1]; levetiracetam 20 mg/kg) of the same compound?
Its value is “fails to improve the performance”.

And the “binding to SV2A” value [2]?
Its value is “binds to a specific site in the CNS: the synaptic vesicle protein 2A (SV2A)”.

What about the “performance in Benton Visual Retention Test” value [3] of the same compound?
Its value is “fail to rescue performance”.

What about the “performance in Buschke Selective Reminding Test—Delayed Recall” value [3] of the same compound?
Its value is “fail to rescue performance”.

And the “performance in Verbal Paired Associates Test—Delayed Recall” value [3]?
Its value is “fail to rescue performance”.

What about the “performance in Verbal Paired Associates Test—Recognition” value [3] of the same compound?
The value was “fail to rescue performance”.

What about the “entorhinal cortex (EC) activity during memory judgments” value [4] of the same compound?
Its value is “increases EC activity”.

What about the “DG/CA3 activity during lure stimuli correctly identified as "similar"” value ([4]; p=0.037) of the same compound?
The value was “reduces DG/CA3 hyper-activity”.

And the “performance in the explicit 3-alternative forced choice task” value [5]?
The value was “improves significantly”.

What about the absorption ([6]; after oral administration) of the same compound?
The absorption was “rapidly and almost completely absorbed”.

And the plasma half-life ([6]; expected in elderly due to decreased renal function)?
The plasma half-life was 9 to 10 h.

What about the “time of peak plasma concentrations” value ([6]; following oral administration) of the same compound?
Its value is “about 1 hour”.

What about the plasma half-life ([6]; in vivo) of the same compound?
Its plasma half-life is “approximately 7±1 hour”.

And the “time to steady state” value ([6]; multiple twice-daily dosing)?
The value was 2 days.

And the “bioavailability, effect of food” value ([6]; oral)?
The value was “not affected by food”.

Which “memory performance relative to vehicle control treatment” value ([1]; donepezil 1 mg/kg/day alone, two-hour delay RAM, t(7)=0, p=1.00) does the source give for `COc1cc2c(cc1OC)C(=O)C(CC1CCN(Cc3ccccc3)CC1)C2` (stereo not shown) [donepezil, 2,3-dihydro-5,6-dimethoxy-2-((1-(phenylmethyl)-4-piperidinyl)methyl)-1H-inden-1-one] here?
The value was “does not significantly improve memory performance”.

And the “average no. of errors ± standard error of the mean (SEM), retention test” value ([1]; donepezil 1 mg/kg/day i.p., two-hour delay RAM, AI rats n=8, vehicle control 2.88±0.67)?
The value was 2.88±0.46.

And the “memory performance relative to vehicle control treatment” value ([1]; donepezil 2 mg/kg/day alone, two-hour delay RAM, t(7)=0.91, p=0.930)?
Its value is “does not significantly improve memory performance”.

What about the “average no. of errors ± SEM, retention test” value ([1]; donepezil 2 mg/kg/day i.p., two-hour delay RAM, AI rats n=8, vehicle control 2.88±0.67) of the same compound?
The value was 2.81±0.43.
